#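 Step 1: Grow cells in 96-well plates. Step 2: Expose to compound for 48 hours at 5 concentrations. Step 3: Interpolate endpoints linearly; if unreached, use highest concentration. TGI denotes the concentration required for complete inhibition of growth.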
# Columns and labels:
# Assay in all cases: NCI tumour cell line growth inhibition, 48 h
# KM12 colon = system: KM12 colon
# RPMI-8226 leukemia = system: RPMI-8226 leukemia
# CAKI-1 renal = system: CAKI-1 renal
# OVCAR-3 ovarian = system: OVCAR-3 ovarian
# MDA-MB-435 = system: MDA-MB-435
# HT29 colon = system: HT29 colon
# ACHN renal = system: ACHN renal
# SK-OV-3 ovarian = system: SK-OV-3 ovarian
# NCI-H522 lung = system: NCI-H522 lung
# SNB-19 CNS = system: SNB-19 CNS
# 786-0 renal = system: 786-0 renal
# NCI/ADR-RES ovarian = system: NCI/ADR-RES ovarian
# T-47D breast = system: T-47D breast
# RXF 393 renal = system: RXF 393 renal
# COLO 205 colon = system: COLO 205 colon
# NCI-H460 lung = system: NCI-H460 lung
# HCT-116 colon = system: HCT-116 colon
# SF-539 CNS = system: SF-539 CNS
# U251 CNS = system: U251 CNS
# HCT-15 colon = system: HCT-15 colon
# NCI-H226 lung = system: NCI-H226 lung
# LOX IMVI melanoma = system: LOX IMVI melanoma
# MDA-N = system: MDA-N
# K-562 leukemia = system: K-562 leukemia
# BT-549 breast = system: BT-549 breast
# EKVX NSCLC = system: EKVX NSCLC
# M14 melanoma = system: M14 melanoma
# PC-3 prostate = system: PC-3 prostate
# SK-MEL-5 melanoma = system: SK-MEL-5 melanoma
# TK-10 renal = system: TK-10 renal
# UACC-257 melanoma = system: UACC-257 melanoma
# SK-MEL-2 melanoma = system: SK-MEL-2 melanoma
# UACC-62 melanoma = system: UACC-62 melanoma
# OVCAR-5 ovarian = system: OVCAR-5 ovarian
# UO-31 renal = system: UO-31 renal
# A549 NSCLC = system: A549 NSCLC
# SF-295 CNS = system: SF-295 CNS
# MOLT-4 leukemia = system: MOLT-4 leukemia
# HL-60(TB) leukemia = system: HL-60(TB) leukemia
# SF-268 CNS = system: SF-268 CNS
# HOP-92 NSCLC = system: HOP-92 NSCLC
# SW-620 colon = system: SW-620 colon
# OVCAR-8 ovarian = system: OVCAR-8 ovarian
# NCI-H23 lung = system: NCI-H23 lung
# SN12C renal = system: SN12C renal
# CCRF-CEM leukemia = system: CCRF-CEM leukemia
# HS 578T breast = system: HS 578T breast
# IGROV1 ovarian = system: IGROV1 ovarian
# DU-145 prostate = system: DU-145 prostate
# HCC-2998 colon = system: HCC-2998 colon
# HOP-62 NSCLC = system: HOP-62 NSCLC
# OVCAR-4 ovarian = system: OVCAR-4 ovarian
# MDA-MB-231 breast = system: MDA-MB-231 breast
# MCF7 breast = system: MCF7 breast
# A498 renal = system: A498 renal
# SNB-75 CNS = system: SNB-75 CNS
# MALME-3M melanoma = system: MALME-3M melanoma
# SK-MEL-28 melanoma = system: SK-MEL-28 melanoma
smiles,measurement,setting,value
NC(=O)NNCc1ccccc1,TGI,KM12 colon,> 100 µM
same,TGI,RPMI-8226 leukemia,> 100 µM
same,TGI,CAKI-1 renal,> 100 µM
same,TGI,OVCAR-3 ovarian,> 100 µM
same,TGI,MDA-MB-435,> 100 µM
same,TGI,HT29 colon,> 100 µM
same,TGI,ACHN renal,> 100 µM
same,TGI,SK-OV-3 ovarian,> 100 µM
same,TGI,NCI-H522 lung,> 100 µM
same,TGI,SNB-19 CNS,> 100 µM
same,TGI,786-0 renal,> 100 µM
same,TGI,NCI/ADR-RES ovarian,> 100 µM
same,TGI,T-47D breast,> 100 µM
same,TGI,RXF 393 renal,> 100 µM
same,TGI,COLO 205 colon,> 100 µM
same,TGI,NCI-H460 lung,> 100 µM
same,TGI,HCT-116 colon,> 100 µM
same,TGI,SF-539 CNS,> 100 µM
same,TGI,U251 CNS,> 100 µM
same,TGI,HCT-15 colon,> 100 µM
same,TGI,NCI-H226 lung,> 100 µM
same,TGI,LOX IMVI melanoma,> 100 µM
same,TGI,MDA-N,> 100 µM
same,TGI,K-562 leukemia,> 100 µM
same,TGI,BT-549 breast,> 100 µM
same,TGI,EKVX NSCLC,> 100 µM
same,TGI,M14 melanoma,> 100 µM
same,TGI,PC-3 prostate,> 100 µM
same,TGI,SK-MEL-5 melanoma,> 100 µM
same,TGI,TK-10 renal,> 100 µM
same,TGI,UACC-257 melanoma,> 100 µM
same,TGI,SK-MEL-2 melanoma,> 100 µM
same,TGI,UACC-62 melanoma,> 100 µM
same,TGI,OVCAR-5 ovarian,> 100 µM
same,TGI,UO-31 renal,> 100 µM
same,TGI,A549 NSCLC,> 100 µM
same,TGI,SF-295 CNS,> 100 µM
same,TGI,MOLT-4 leukemia,> 100 µM
same,TGI,HL-60(TB) leukemia,> 100 µM
same,TGI,SF-268 CNS,> 100 µM
same,TGI,HOP-92 NSCLC,> 100 µM
same,TGI,SW-620 colon,> 100 µM
same,TGI,OVCAR-8 ovarian,> 100 µM
same,TGI,NCI-H23 lung,> 100 µM
same,TGI,SN12C renal,> 100 µM
same,TGI,CCRF-CEM leukemia,> 100 µM
same,TGI,HS 578T breast,> 100 µM
same,TGI,IGROV1 ovarian,> 100 µM
same,TGI,DU-145 prostate,> 100 µM
same,TGI,HCC-2998 colon,> 100 µM
same,TGI,HOP-62 NSCLC,> 100 µM
same,TGI,OVCAR-4 ovarian,> 100 µM
same,TGI,MDA-MB-231 breast,> 100 µM
same,TGI,MCF7 breast,> 100 µM
same,TGI,A498 renal,> 100 µM
CN(C)CCOc1ccc2[nH]c(C(=O)N3CC(CCl)c4c3cc(N)c3ccccc43)cc2c1 (configuration not stated),TGI,KM12 colon,< 0.01 µM
same,TGI,RPMI-8226 leukemia,< 0.01 µM
same,TGI,SNB-75 CNS,< 0.215 µM
same,TGI,OVCAR-3 ovarian,< 0.01 µM
same,TGI,MDA-MB-435,< 0.01 µM
same,TGI,HT29 colon,1.71 µM
same,TGI,ACHN renal,< 0.01 µM
same,TGI,MALME-3M melanoma,< 0.01 µM
same,TGI,SK-OV-3 ovarian,< 0.01 µM
same,TGI,SNB-19 CNS,0.202 µM
same,TGI,786-0 renal,< 0.01 µM
same,TGI,HCT-116 colon,3.63 µM
same,TGI,U251 CNS,1.1 µM
same,TGI,HCT-15 colon,> 46.9 µM
same,TGI,NCI-H226 lung,< 0.01 µM
same,TGI,MDA-N,< 0.01 µM
same,TGI,K-562 leukemia,> 4.64 µM
same,TGI,BT-549 breast,1.64 µM
same,TGI,M14 melanoma,> 100 µM
same,TGI,PC-3 prostate,3.66 µM
same,TGI,SK-MEL-5 melanoma,< 0.01 µM
same,TGI,TK-10 renal,> 4.64 µM
same,TGI,SK-MEL-2 melanoma,< 0.01 µM
same,TGI,OVCAR-5 ovarian,> 100 µM
same,TGI,SK-MEL-28 melanoma,< 0.01 µM
same,TGI,UO-31 renal,< 0.01 µM
same,TGI,A549 NSCLC,13.2 µM
same,TGI,MOLT-4 leukemia,< 0.01 µM
same,TGI,HL-60(TB) leukemia,> 100 µM
same,TGI,SF-268 CNS,> 4.64 µM
same,TGI,HOP-92 NSCLC,< 0.01 µM
same,TGI,NCI-H23 lung,< 0.01 µM
same,TGI,CCRF-CEM leukemia,> 100 µM
same,TGI,DU-145 prostate,0.0525 µM
same,TGI,HCC-2998 colon,< 0.01 µM
same,TGI,OVCAR-4 ovarian,1.18 µM
same,TGI,MDA-MB-231 breast,> 100 µM
CS(=O)(=O)c1ccc(/C=N/NC(N)=S)cc1,TGI,KM12 colon,> 100 µM
same,TGI,RPMI-8226 leukemia,> 100 µM
same,TGI,CAKI-1 renal,> 100 µM
same,TGI,SNB-75 CNS,> 100 µM
same,TGI,OVCAR-3 ovarian,> 100 µM
same,TGI,MDA-MB-435,> 100 µM
same,TGI,HT29 colon,> 100 µM
same,TGI,ACHN renal,> 100 µM
same,TGI,MALME-3M melanoma,> 100 µM
same,TGI,SK-OV-3 ovarian,> 100 µM
same,TGI,NCI-H522 lung,> 100 µM
same,TGI,SNB-19 CNS,> 100 µM
same,TGI,786-0 renal,> 100 µM
same,TGI,NCI/ADR-RES ovarian,> 100 µM
same,TGI,T-47D breast,> 100 µM
same,TGI,RXF 393 renal,> 100 µM
same,TGI,COLO 205 colon,> 100 µM
same,TGI,NCI-H460 lung,> 100 µM
same,TGI,HCT-116 colon,> 100 µM
same,TGI,U251 CNS,> 100 µM
same,TGI,HCT-15 colon,> 100 µM
same,TGI,NCI-H226 lung,> 100 µM
same,TGI,LOX IMVI melanoma,> 100 µM
same,TGI,MDA-N,> 100 µM
same,TGI,K-562 leukemia,> 100 µM
same,TGI,BT-549 breast,> 100 µM
same,TGI,EKVX NSCLC,> 100 µM
same,TGI,M14 melanoma,> 100 µM
same,TGI,PC-3 prostate,> 100 µM
same,TGI,SK-MEL-5 melanoma,> 100 µM
same,TGI,TK-10 renal,> 100 µM
same,TGI,UACC-257 melanoma,> 100 µM
same,TGI,UACC-62 melanoma,> 100 µM
same,TGI,OVCAR-5 ovarian,> 100 µM
same,TGI,SK-MEL-28 melanoma,> 100 µM
same,TGI,UO-31 renal,> 100 µM
same,TGI,A549 NSCLC,> 100 µM
same,TGI,SF-295 CNS,> 100 µM
same,TGI,MOLT-4 leukemia,> 100 µM
same,TGI,HL-60(TB) leukemia,> 100 µM
same,TGI,SF-268 CNS,> 100 µM
same,TGI,HOP-92 NSCLC,> 100 µM
same,TGI,SW-620 colon,> 100 µM
same,TGI,OVCAR-8 ovarian,> 100 µM
same,TGI,NCI-H23 lung,> 100 µM
same,TGI,SN12C renal,> 100 µM
same,TGI,HS 578T breast,> 100 µM
same,TGI,IGROV1 ovarian,> 100 µM
same,TGI,DU-145 prostate,> 100 µM
same,TGI,HCC-2998 colon,> 100 µM
same,TGI,HOP-62 NSCLC,> 100 µM
same,TGI,OVCAR-4 ovarian,> 100 µM
same,TGI,MDA-MB-231 breast,> 100 µM
same,TGI,MCF7 breast,> 100 µM
same,TGI,A498 renal,> 100 µM
